A short description of the series: Circular dichroism (CD) spectrum, molar ellipticity at about 270 nm as measure of base moiety orientation (syn/anti). Type of series: physicochemical. To be noted: for Δ[θ]ext: phosphate buffer minus borate buffer; for change of [θ]ext / CD peak from phosphate buffer to borate buffer (borax): phosphate vs borate buffer. The text has this: The molar ellipticity ([θ]max) at about 270 nm in the CD spectrum of a nucleoside reflects two factors, namely the orientation of the base moiety to the furanose moiety and the puckering of the furanose ring. It is known that the molar ellipticity at about 270 nm markedly decreases in the syn orientation as compared with the anti orientation. […]
[…] […] The rate of syn orientation induction in Urd in the presence of boric acid was smaller as compared with IPU but this can be explained by the presence of an equilibrium between the borate ester formation and the dissociation.
Specifically, CD spectra were measured with Urd, 5′-aminouridine (5′-NH2-Urd) and 5′-aminoisopropylideneuridine (5′-NH2-IPU) in phosphate buffer (pH 7.2) and with 5′-NH2-Urd in borate buffer (pH 7.2) for the investigation of uracil moiety orientations. […] This is presumably due to a syn orientation-inducing effect of hydrogen bond formation between the oxygen atom of the 2-position carbonyl group of the nucleoside base moiety and the 5′-position amino hydrogen atom. Under the measurement conditions in this case, the 5′-position amino group of 5′-NH2-Urd occurs in an ammonium ion state and presumably serves as a good hydrogen bond donor. […] This is probably due to two synergistic effects, namely the fixation of the sugar moiety to the 2′,3′-planar structure and the hydrogen bond formation between the 5′-position amino group and the 2-position carbonyl group of the base moiety.
Then, on the supposition that Urd in phosphate buffer ([θ]max value=9700) is in an ideal 100% anti orientation and 5′-NH2-IPU in phosphate buffer ([θ]max value=1200) in an ideal 100% syn orientation, the orientations of the base moiety (uracil) of uridine and uridine derivatives (5′-NH2-Urd, IPU, 5′-NH2-IPU) were evaluated under different conditions (in phosphate buffer, in borate buffer).
In general terms: CD spectra are sensitive to the conformation of chiral molecules.

Setting [1] is: phosphate buffer (pH 7.2), no borax, Urd = 100% anti, 5′-NH2-IPU = 100% syn supposed.

The text below walks through data of patent publication US7442788B2, “Antisense molecules and method of controlling expression of gene function by using the same” (Japan Science and Technology Corporation, priority 2001, dated 2008).

As to “5′-aminoisopropylideneuridine [5′-NH2-IPU, reference compound]”, for the setting “phosphate buffer (pH 7.2)”, the “[θ]max” value was found to be 1200 deg cm^2dmol^−1. Besides, the “proportion of syn orientation of the base moiety” value under setting [1] was 100 % syn.

Take `NC[C@H]1O[C@@H](n2ccc(N)nc2=O)[C@H](O)[C@@H]1O` [5′-NH2-Cyd, 5′-amino-5′-deoxycytidine]: the “[θ]max” value is, setting by setting: (borate buffer (pH 7.2)) 4900 deg cm^2dmol^−1; (phosphate buffer (pH 7.2)) 8400 deg cm^2dmol^−1.

As to `Cc1cn([C@H]2C[C@H](O)[C@@H](CN)O2)c(=O)[nH]c1=O` [5′-NH2-Thd [A], 5′-amino-5′-deoxythymidine, reference compound], the “Δ[θ]ext” value is −350. In addition, the Molar ellipticity ([θ]ext) at about 270 nm (borate buffer (pH 7.2)) is 950 deg·cm2/dmol. The Molar ellipticity ([θ]ext) at about 270 nm (phosphate buffer (pH 7.2)) was 600 deg·cm2/dmol.

With `CC(C)(C)OC(=O)N[C@@H](CCC(=O)NC[C@H]1O[C@@H](n2ccc(=O)[nH]c2=O)[C@H](O)[C@@H]1O)C(=O)O` [Boc-isoGln(5′U)-OH, N^α-t-butoxycarbonyl-N^5-(5′-deoxy-5′-uridyl)-L-isoglutamine], under “borate buffer (pH 7.2)”, the “proportion of syn orientation of the base moiety” value stood at 56 % syn.

`Nc1ccn([C@@H]2O[C@H](CO)[C@@H](O)[C@H]2O)c(=O)n1` [Cytidine (Cyd), Cytidine, reference compound]: the “[θ]max” value turned out to be 12200 deg cm^2dmol^−1 (borate buffer (pH 7.2)) and 14200 deg cm^2dmol^−1 (phosphate buffer (pH 7.2)).

With `O=c1ccn([C@@H]2O[C@H](CO)[C@@H](O)[C@H]2O)c(=O)[nH]1` [Urd, uridine, reference compound], for the setting “borate buffer (pH 7.2)”, the “[θ]max” value was 7400 deg cm^2dmol^−1 and the “proportion of syn orientation of the base moiety” value worked out at 27 % syn. Besides, under “phosphate buffer (pH 7.2)”, the “[θ]max” value is listed as 9700 deg cm^2dmol^−1 and the “proportion of anti orientation of the base moiety” value was 100 % anti.

As to Boc-AEG(5′U)-OH, the “proportion of syn orientation of the base moiety” value runs as follows: (5.5 mM borax added, phosphate buffer pH 7.2) 76 % syn; (5.5 mM borax, pH adjusted from 7.2 to 6.2) 41 % syn; (borate buffer (pH 7.2)) 64 % syn; under setting [1], 39 % syn. Further, the “change of CD peak at about 270 nm / orientation upon addition of borax” value by setting is: (pH 6.0) “almost no decrease in the relevant peak was observed”; (pH 8.8) “very efficient increase in syn orientation proportion”.

Take Boc-isoGln(5′I)-isoGln(5′U)-OH [I-U]: the “Δ[θ]ext” value is listed as 3400. Further, under “borate buffer (pH 7.2)”, the Molar ellipticity ([θ]ext) at about 270 nm is 1400 deg·cm2/dmol. Besides, the Molar ellipticity ([θ]ext) at about 270 nm (phosphate buffer (pH 7.2)) was 4800 deg·cm2/dmol.

Take Boc-isoGln(5′U)-isoGln(5′I)-OH [U-I]: the “Δ[θ]ext” value is reported as 3300. For the same compound, the Molar ellipticity ([θ]ext) at about 270 nm (phosphate buffer (pH 7.2)) worked out at 6600 deg·cm2/dmol.

With “Boc-isoGln(5′U)-isoGln(5′I)-isoGln(5′U)-OH [U-I-U]”, the “change of [θ]ext / CD peak from phosphate buffer to borate buffer (borax)” value is “[θ]ext decreases”.

As to Boc-isoGln(5′U)-isoGln(5′U)-OH [U-U], the “Δ[θ]ext” value worked out at 11050. Besides, the Molar ellipticity ([θ]ext) at about 270 nm (borate buffer (pH 7.2)) is 1250 deg·cm2/dmol. Moreover, for the setting “phosphate buffer (pH 7.2)”, the Molar ellipticity ([θ]ext) at about 270 nm is 12300 deg·cm2/dmol.

In the case of “Boc-isoGln(5′U)-isoGln(5′U)-isoGln(5′U)-OH [U-U-U]”, the “change of [θ]ext / CD peak from phosphate buffer to borate buffer (borax)” value was “[θ]ext decreases”.
